In PubChem BioAssay AID1918931 (Molecular Pharmacology Branch, DTP, NCI, 2023):

Test system: 138582-337-R-J1-PDC complex spheroid viability
Assay: Anticancer human tumor 138582-337-R-J1-PDC patient-derived Merkel cell tumor cell line growth inhibition
Settings: for IC50: curve of first compound; for viability, T/C: stronger effect = lower value
In short: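 Drug combinations with the LSD1 inhibitor iadademstat tested on tumor cells co-cultured as spheroids with endothelial cells and mesenchymal stem cells. Concentrations descended in half-log increments from clinical Cmax or 10 microM.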

[1] = second compound 0.1 µM, first compound 0.0316 µM
[2] = second compound 0.1 µM, first compound 0.1 µM
[3] = second compound 0.1 µM, first compound 0.316 µM
[4] = second compound 0.1 µM, first compound 1 µM
[5] = second compound 0.1 µM, first compound 3.16 µM
[6] = second compound 0.1 µM, first compound 10 µM
[7] = second compound 0.316 µM, first compound 0.0316 µM
[8] = second compound 0.316 µM, first compound 0.1 µM
[9] = second compound 0.316 µM, first compound 0.316 µM
[10] = second compound 0.316 µM, first compound 1 µM
[11] = second compound 0.316 µM, first compound 3.16 µM
[12] = second compound 0.316 µM, first compound 10 µM
[13] = second compound 1 µM, first compound 0.0316 µM
[14] = second compound 1 µM, first compound 0.1 µM
[15] = second compound 1 µM, first compound 0.316 µM
[16] = second compound 1 µM, first compound 1 µM
[17] = second compound 1 µM, first compound 3.16 µM
[18] = second compound 1 µM, first compound 10 µM
[19] = second compound 3.16 µM, first compound 0.0316 µM
[20] = second compound 3.16 µM, first compound 0.1 µM
[21] = second compound 3.16 µM, first compound 0.316 µM
[22] = second compound 3.16 µM, first compound 1 µM
[23] = second compound 3.16 µM, first compound 3.16 µM
[24] = second compound 3.16 µM, first compound 10 µM
[25] = second compound 10 µM, first compound 0.0316 µM
[26] = second compound 10 µM, first compound 0.1 µM
[27] = second compound 10 µM, first compound 0.316 µM
[28] = second compound 10 µM, first compound 1 µM
[29] = second compound 10 µM, first compound 3.16 µM
[30] = second compound 10 µM, first compound 10 µM
[31] = second compound 0.1 µM, first compound 0.00316 µM
[32] = second compound 0.1 µM, first compound 0.01 µM
[33] = second compound 0.316 µM, first compound 0.00316 µM
[34] = second compound 0.316 µM, first compound 0.01 µM
[35] = second compound 1 µM, first compound 0.00316 µM
[36] = second compound 1 µM, first compound 0.01 µM
[37] = second compound 3.16 µM, first compound 0.00316 µM
[38] = second compound 3.16 µM, first compound 0.01 µM
[39] = second compound 10 µM, first compound 0.00316 µM
[40] = second compound 10 µM, first compound 0.01 µM
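Further: spheroids exposed to agents for 7 days.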
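Wherever viability, T/C is given: 100% = DMSO vehicle control viability.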

## CC(C)c1c(-c2ccccc2)nc2c(C#N)c[nH]n2c1=O + NC1CC1c1ccc(-c2cccc(O)c2)cc1
Second compound 0.1 µM
  IC50: 6250 nM
Second compound 0.316 µM
  IC50: 4400 nM
Second compound 1 µM
  IC50: 4910 nM
Second compound 3.16 µM
  IC50: 2530 nM
Second compound 10 µM
  IC50: > 10000 nM
[1]
  viability, T/C: 69.5%
[2]
  viability, T/C: 76.3%
[3]
  viability, T/C: 66.6%
[4]
  viability, T/C: 62.1%
[5]
  viability, T/C: 54.4%
[6]
  viability, T/C: 46.9%
[7]
  viability, T/C: 69.1%
[8]
  viability, T/C: 73.5%
[9]
  viability, T/C: 71.2%
[10]
  viability, T/C: 67.6%
[11]
  viability, T/C: 54.7%
[12]
  viability, T/C: 38.5%
[13]
  viability, T/C: 76.1%
[14]
  viability, T/C: 68.8%
[15]
  viability, T/C: 82%
[16]
  viability, T/C: 70.2%
[17]
  viability, T/C: 57.5%
[18]
  viability, T/C: 38.2%
[19]
  viability, T/C: 85.7%
[20]
  viability, T/C: 78.6%
[21]
  viability, T/C: 68.6%
[22]
  viability, T/C: 55.9%
[23]
  viability, T/C: 50.1%
[24]
  viability, T/C: 38.5%
[25]
  viability, T/C: 85.7%
[26]
  viability, T/C: 90.9%
[27]
  viability, T/C: 84.9%
[28]
  viability, T/C: 73.9%
[29]
  viability, T/C: 61.1%
[30]
  viability, T/C: 51.6%

## CC1COCCN1c1cc(-c2ccnn2C)c2ccnc(-c3ccn[nH]3)c2n1 (stereo not given) + NC1CC1c1ccc(-c2cccc(O)c2)cc1
Second compound 0.1 µM
  IC50: 34.5 nM
Second compound 0.316 µM
  IC50: 25.7 nM
Second compound 1 µM
  IC50: 38.4 nM
Second compound 3.16 µM
  IC50: 43.8 nM
Second compound 10 µM
  IC50: 67.7 nM
[31]
  viability, T/C: 62.1%
[32]
  viability, T/C: 65%
[1]
  viability, T/C: 50.3%
[2]
  viability, T/C: 34.1%
[3]
  viability, T/C: 26.3%
[4]
  viability, T/C: 28%
[33]
  viability, T/C: 68%
[34]
  viability, T/C: 57.4%
[7]
  viability, T/C: 48%
[8]
  viability, T/C: 42.9%
[9]
  viability, T/C: 27.1%
[10]
  viability, T/C: 27.3%
[35]
  viability, T/C: 77.1%
[36]
  viability, T/C: 74.7%
[13]
  viability, T/C: 54.4%
[14]
  viability, T/C: 28.2%
[15]
  viability, T/C: 30.1%
[16]
  viability, T/C: 25.8%
[37]
  viability, T/C: 80.4%
[38]
  viability, T/C: 65.8%
[19]
  viability, T/C: 59.7%
[20]
  viability, T/C: 33.5%
[21]
  viability, T/C: 27.6%
[22]
  viability, T/C: 26.4%
[39]
  viability, T/C: 75.6%
[40]
  viability, T/C: 85%
[25]
  viability, T/C: 57.6%
[26]
  viability, T/C: 46.2%
[27]
  viability, T/C: 30.5%
[28]
  viability, T/C: 26.5%

## COc1ccc([C@@H](O)c2cc(-c3ncnc4cc(N5CCOCC5)ccc34)c(F)cc2Cl)nn1 + NC1CC1c1ccc(-c2cccc(O)c2)cc1
Second compound 0.1 µM
  IC50: 620 nM
Second compound 0.316 µM
  IC50: 2690 nM
Second compound 1 µM
  IC50: 1980 nM
Second compound 3.16 µM
  IC50: 2200 nM
Second compound 10 µM
  IC50: 2490 nM
[1]
  viability, T/C: 73.2%
[2]
  viability, T/C: 60.4%
[3]
  viability, T/C: 57%
[4]
  viability, T/C: 45.5%
[5]
  viability, T/C: 38.2%
[6]
  viability, T/C: 24.6%
[7]
  viability, T/C: 67%
[8]
  viability, T/C: 72.2%
[9]
  viability, T/C: 66.1%
[10]
  viability, T/C: 58.3%
[11]
  viability, T/C: 49.2%
[12]
  viability, T/C: 28.5%
[13]
  viability, T/C: 77.2%
[14]
  viability, T/C: 73.5%
[15]
  viability, T/C: 61%
[16]
  viability, T/C: 61.6%
[17]
  viability, T/C: 44.7%
[18]
  viability, T/C: 25.1%
[19]
  viability, T/C: 68.3%
[20]
  viability, T/C: 79.5%
[21]
  viability, T/C: 65.4%
[22]
  viability, T/C: 58.8%
[23]
  viability, T/C: 46.4%
[24]
  viability, T/C: 26%
[25]
  viability, T/C: 99.8%
[26]
  viability, T/C: 90.6%
[27]
  viability, T/C: 77%
[28]
  viability, T/C: 63.9%
[29]
  viability, T/C: 48.1%
[30]
  viability, T/C: 25.3%

## COc1cc(C2c3cc4c(cc3C(OC3OC5COC(C)OC5C(O)C3O)C3COC(=O)C23)OCO4)cc(OC)c1O (stereo not given) + NC1CCC(NC2CC2c2ccccc2)CC1
Second compound 0.1 µM
  IC50: > 3000 nM
Second compound 0.316 µM
  IC50: > 3000 nM
Second compound 1 µM
  IC50: > 3000 nM
Second compound 3.16 µM
  IC50: > 3000 nM
Second compound 10 µM
  IC50: > 3000 nM
Second compound 0.1 µM, first compound 0.00949 µM
  viability, T/C: 105%
Second compound 0.1 µM, first compound 0.03 µM
  viability, T/C: 89.8%
Second compound 0.1 µM, first compound 0.0949 µM
  viability, T/C: 67.3%
Second compound 0.1 µM, first compound 0.3 µM
  viability, T/C: 69.4%
Second compound 0.1 µM, first compound 0.949 µM
  viability, T/C: 70.3%
Second compound 0.1 µM, first compound 3 µM
  viability, T/C: 66.4%
Second compound 0.316 µM, first compound 0.00949 µM
  viability, T/C: 102%
Second compound 0.316 µM, first compound 0.03 µM
  viability, T/C: 76.3%
Second compound 0.316 µM, first compound 0.0949 µM
  viability, T/C: 85.4%
Second compound 0.316 µM, first compound 0.3 µM
  viability, T/C: 85.8%
Second compound 0.316 µM, first compound 0.949 µM
  viability, T/C: 74%
Second compound 0.316 µM, first compound 3 µM
  viability, T/C: 60.7%
Second compound 1 µM, first compound 0.00949 µM
  viability, T/C: 90.8%
Second compound 1 µM, first compound 0.03 µM
  viability, T/C: 95.3%
Second compound 1 µM, first compound 0.0949 µM
  viability, T/C: 76%
Second compound 1 µM, first compound 0.3 µM
  viability, T/C: 68.7%
Second compound 1 µM, first compound 0.949 µM
  viability, T/C: 94.1%
Second compound 1 µM, first compound 3 µM
  viability, T/C: 85.2%
Second compound 3.16 µM, first compound 0.00949 µM
  viability, T/C: 82.6%
Second compound 3.16 µM, first compound 0.03 µM
  viability, T/C: 87.3%
Second compound 3.16 µM, first compound 0.0949 µM
  viability, T/C: 85.1%
Second compound 3.16 µM, first compound 0.3 µM
  viability, T/C: 71.6%
Second compound 3.16 µM, first compound 0.949 µM
  viability, T/C: 69.1%
Second compound 3.16 µM, first compound 3 µM
  viability, T/C: 95.3%
Second compound 10 µM, first compound 0.00949 µM
  viability, T/C: 73.8%
Second compound 10 µM, first compound 0.03 µM
  viability, T/C: 81.6%
Second compound 10 µM, first compound 0.0949 µM
  viability, T/C: 75.3%
Second compound 10 µM, first compound 0.3 µM
  viability, T/C: 82%
Second compound 10 µM, first compound 0.949 µM
  viability, T/C: 65.5%
Second compound 10 µM, first compound 3 µM
  viability, T/C: 56.7%

## Nc1ncn(C2CC(O)C(CO)O2)c(=O)n1 (stereo not given) + NC1CCC(NC2CC2c2ccccc2)CC1
Second compound 0.1 µM
  IC50: > 1000 nM
Second compound 0.316 µM
  IC50: > 1000 nM
Second compound 1 µM
  IC50: > 1000 nM
Second compound 3.16 µM
  IC50: > 1000 nM
Second compound 10 µM
  IC50: > 1000 nM
[31]
  viability, T/C: 98.7%
[32]
  viability, T/C: 97.8%
[1]
  viability, T/C: 103%
[2]
  viability, T/C: 108%
[3]
  viability, T/C: 95.4%
[4]
  viability, T/C: 102%
[33]
  viability, T/C: 82.7%
[34]
  viability, T/C: 99.4%
[7]
  viability, T/C: 96.6%
[8]
  viability, T/C: 107%
[9]
  viability, T/C: 89.7%
[10]
  viability, T/C: 96.5%
[35]
  viability, T/C: 96.9%
[36]
  viability, T/C: 110%
[13]
  viability, T/C: 97.5%
[14]
  viability, T/C: 81.1%
[15]
  viability, T/C: 83.2%
[16]
  viability, T/C: 97.3%
[37]
  viability, T/C: 100%
[38]
  viability, T/C: 97.5%
[19]
  viability, T/C: 93.1%
[20]
  viability, T/C: 91.8%
[21]
  viability, T/C: 103%
[22]
  viability, T/C: 95.3%
[39]
  viability, T/C: 87.2%
[40]
  viability, T/C: 86%
[25]
  viability, T/C: 91.8%
[26]
  viability, T/C: 82.4%
[27]
  viability, T/C: 84.7%
[28]
  viability, T/C: 76.1%
